# Test results as given in PMC6079455, “Discovery of Novel Caeridins from the Skin Secretion of the Australian White's Tree Frog, Litoria caerulea” (International Journal of Genomics, 2018).
# Ends that are not written are not given here.
# Experiments:
# [1] = tested on: E. coli; test: Membrane permeability on E. coli (ONPG / β-galactosidase); assay type: cell-based, Escherichia coli; settings: ONPG hydrolysis, absorbance 420 nm, 0-30 min, 37°C
# Procedure: The membrane permeabilsation of E.coli was determined by measuring the release of β-galactosidase activity from E. coli into the culture medium with ONPG as the substrate. The log-phase E. coli was grown in MHB medium containing 2% lactose at 37°C, and the cells were pelleted. The cell pellets were suspended in 10 mM PBS (pH 7.4) containing 1.5 mM ONPG and diluted to 1 × 10^8 CFU/ml. Aliquots of cells were incubated with different concentrations of peptides at 37°C. Permeabilisation was measured at 420 nm every 2 min from 0 to 30 min, which reflects ONPG influx into the cells working as an indicator of the permeability of the tested peptides.
# [2] = tested on: E. faecalis NCTC12697; test: Antimicrobial test (broth microdilution); assay type: cell-based, Enterococcus faecalis; settings: for MIC: MHB, 5 × 10^5 CFU/ml, 37°C overnight, 550 nm
# Procedure: (§1) The antimicrobial activities were tested by the broth microdilution method and evaluated by the determination of MIC values against different tested microorganisms, the Gram-positive bacteria, S. aureus (NCTC 10788), E. faecalis (NCTC12697), and MRSA (NCTC 12493); the Gram-negative bacterium, E. coli (NCTC 10418); and the yeast, C. albicans (NCYC 1467). The microorganisms were cultured to their log phase in MHB and diluted to 5 × 10^5 CFU/ml then subsequently treated with peptide solutions of gradient concentrations. After incubation at 37°C overnight, the growth of microorganisms was detected at a wavelength of 550 nm using a Synergy HT plate reader (Biolise BioTek ELx808, Winooski, VT, USA). The MICs were determined as the lowest concentration of peptide where […].
# [3] = tested on: human microvascular endothelial cell line HMEC-1; test: Membrane permeabilisation of HMEC-1 (LDH release); assay type: cell-based; settings: 24 h; for cytotoxicity to HMEC-1 cells: 100 μM, LDH release; for membrane lysis (LDH release) of HMEC-1: 10^−7 M to 10^−4 M
# Procedure: The membrane permeabilisation of the human microvascular endothelial cell line, HMEC-1, was evaluated using the Pierce LDH Cytotoxicity Assay Kit (Thermo Fisher Scientific, San Francisco, CA, USA). HMEC-1 cells were cultured in MCDB-131 medium (Life Technology, Paisley, UK) with 10% FBS, 10 ng/ml epidermal growth factor (EGF) (Life Technology, Paisley, UK), 10 mM L-glutamine (Life Technology, Paisley, UK), and 1% penicillin-streptomycin (Sigma-Aldrich, St. Louise, MO, USA), at 37°C under 5% CO2. Cells were seeded in a 96-well plate at 5000 cells per well and cultured overnight to 80% confluency. Then, the cells were treated with different peptide solutions of gradient concentrations from 10^−7 M to 10^−4 M for 24 h at 37°C, 5% CO2, and H2O-treated cells were made as the spontaneous LDH release control. Lysis buffer was added to cells and incubated for 45 min at 37°C, 5% CO2, to produce the lysis buffer-treated cells which were referred to as maximum LDH release control. Then 50 μl of each sample supernatant was transferred to a 96-well flat-bottom plate in triplicate wells, to which 50 μl of reaction mixture was added, incubated, and protected from light at room temperature for 30 min. After addition of 50 μl Stop Solution to each sample well and removal of bubbles present in sample wells, the absorbance at 490 nm and 680 nm was measured. The absorbance values at 680 nm were subtracted from the absorbance values at 490 nm before calculation of the level of LDH release (cytotoxicity). The level of LDH release was calculated as (2) LDH release %=L−L0/L1−L0×100%, where L refers to sample-treated LDH activity, L0 to spontaneous (H2O-treated) LDH activity, and L1 to maximum (lysis buffer-treated) LDH activity.
# Data analysis was performed using one-way analysis of variance followed by Dunnett's multiple comparison tests with maximum LDH release control in GraphPad Prism (Version 6.0; GraphPad Software Inc., San Diego, CA, USA).
# [4] = tested on: C. albicans NCYC1467; test: Antimicrobial test (broth microdilution); assay type: cell-based, Candida albicans; settings: for MIC: MHB, 5 × 10^5 CFU/ml, 37°C overnight, 550 nm
# Procedure: as §1
# [5] = tested on: S. aureus; test: Membrane permeability on S. aureus (SYTOX Green); assay type: cell-based, Staphylococcus aureus; settings: 2 h; for membrane-permeabilising activity on S. aureus: up to 512 μM
# Procedure: The cell membrane permeability of S. aureus was tested with SYTOX Green Nucleic Acid Stain (Life Technologies, Carlsbad, CA, USA). The log-phase S. aureus was pelleted and suspended in 5% TSB in 0.85% NaCl solution to achieve 1 × 10^8 CFU/ml cells which was then treated with peptide solutions at 37°C for 2 h. The maximum membrane-compromised S. aureus was produced by 70% isopropanol treatment. Subsequently, cells were mixed with 5 μM SYTOX Green stain and incubated in the dark for 10 min. The fluorescence was measured in a 37°C Synergy HT plate reader (Biolise BioTek ELx808, Winooski, VT, USA) at excitation and emission wavelengths of 480 nm and 528 nm, respectively. The membrane permeability was calculated as (1) Membrane permeability%=F−F0/F1−F0×100%, where F represents the processed fluorescence intensity with peptide treatments, F0 represents the processed fluorescence intensity of untreated S. aureus, and F1 represents the processed fluorescence intensity in the maximum membrane-compromised S. aureus (70% isopropanol-treated). The fluorescence intensities of background were subtracted prior to calculation.
# [6] = tested on: MRSA NCTC12493; test: Antimicrobial test (broth microdilution); assay type: cell-based, methicillin-resistant S. aureus; settings: for MIC: MHB, 5 × 10^5 CFU/ml, 37°C overnight, 550 nm
# Procedure: as §1
# [7] = tested on: horse erythrocytes; test: Haemolytic test; assay type: cell-based; settings: tested concentrations, horse red blood cells, 37°C, 2 h
# Procedure: The haemolysis of Caeridins was tested on prepared defrinated horse red blood cells (TCS Biosciences Ltd., Buckingham, UK) by incubating equal volumes of peptide solutions with erythrocyte suspensions at 37°C for 2 H. Maximum haemolysis control was included by incubating equal volumes of 1% Triton X-100 (Sigma-Aldrich, St. Louis, MO, USA) with erythrocyte suspensions. Lysis of erythrocytes was detected by the measurement of supernatant absorbance at a wavelength of 550 nm using a Synergy HT plate reader (Biolise BioTek ELx808, Winooski, VT, USA). The level of haemolysis was as calculated as (3) Haemolysis %=A−A0/A1−A0×100%, where A represents the absorbance with peptide treatments, A0 represents the average absorbance in untreated erythrocytes, and A1 represents the average absorbance in the maximum haemolysis control (1% Triton X-100-treated).
# [8] = tested on: rat urinary bladder smooth muscle; test: Rat urinary bladder smooth muscle test; settings: organ bath, 37°C, n = 5
# Procedure: (§2) Female Wistar rats (250–300 g) were euthanized by CO2 asphyxiation followed by cervical dislocation under appropriate Home Office (UK) animal licenses. Full urinary bladder and ileum were carefully removed from the abdomen, then placed in cold Kreb's solution (118 mM NaCl, 4.7 mM KCl, 25 mM NaHCO3, 1.15 mM NaH2PO4, 2.5 mM CaCl2, 1.1 mM MgCl2, and 5.6 mM glucose), equilibrated with a carbogen mixture (95% O2, 5% CO2). The prepared smooth muscles linked with transducers were placed in 2 ml capacity organ baths with Kreb's solution flowing through at 2 ml/min and maintained at 37°C with constant bubbling of carbogen gas mixture (95% O2, […]) and equilibrated for 1 h prior to analysis. Then the viability of these smooth muscle preparations was tested by 60 mM KCl. Caeridins were tested at sequential molar concentrations in the range from 10^−6 M to 10^−11 M. Dose-response curves were depicted for each Caeridin on individual smooth muscle preparations (n = 5). Changes in tension of the smooth muscle preparations were detected by pressure transducers connected to a PowerLab System (ADInstruments Pty Ltd.). Data were recorded and calculated to obtain the means of responses and standard error of means (SEM). The dose-response curve of each Caeridin was established using best-fit algorithms through the data analysis package provided by GraphPad Prism (Version 6.0; GraphPad Software Inc., San Diego, CA, USA), and the comparative EC50 value for each peptide was depicted.
# [9] = tested on: E. coli NCTC10418; test: Antimicrobial test (broth microdilution); assay type: cell-based, Escherichia coli; settings: for MIC: MHB, 5 × 10^5 CFU/ml, 37°C overnight, 550 nm
# Procedure: as §1
# [10] = tested on: S. aureus NCTC10788; test: Antimicrobial test (broth microdilution); assay type: cell-based, Staphylococcus aureus; settings: for MIC: MHB, 5 × 10^5 CFU/ml, 37°C overnight, 550 nm
# Procedure: as §1
# [11] = tested on: rat ileum smooth muscle; test: Rat ileum smooth muscle test; settings: organ bath, 37°C, n = 5
# Procedure: as §2
Compound,MIC [2],cytotoxicity to HMEC-1 cells [3],MFC [4],MBC [6],MIC [6],haemolytic activity [7],membrane permeabilisation of E. coli at maximum tested concentration [1],MBC [2],membrane lysis (LDH release) of HMEC-1 ([3]; relative to lysis buffer),MIC [4],membrane-permeabilising activity on S. aureus [5],MBC [9],MIC [9],MBC [10],MIC [10],other results
"CC[C@H](C)[C@H](NC(=O)CN)C(=O)NCC(=O)N[C@@H](C)C(=O)N[C@H](C(=O)N[C@@H](CC(C)C)C(=O)N[C@@H](CCCCN)C(=O)N[C@H](C(=O)N[C@@H](CC(C)C)C(=O)N[C@H](C(=O)N[C@H](C(=O)NCC(=O)N[C@@H](CC(C)C)C(=O)N1CCC[C@H]1C(=O)N[C@@H](C)C(=O)N[C@@H](CC(C)C)C(=O)N[C@H](C(=O)N[C@@H](CO)C(=O)N[C@@H](Cc1c[nH]c2ccccc12)C(=O)N[C@H](C(=O)N[C@@H](CCCCN)C(=O)N[C@@H](CCCNC(=N)N)C(=O)N[C@@H](CCCCN)C(=O)N[C@@H](CCCNC(=N)N)C(=O)N[C@@H](CCC(N)=O)C(=O)N[C@@H](CCC(N)=O)C(N)=O)[C@@H](C)CC)[C@@H](C)CC)[C@@H](C)O)[C@@H](C)O)C(C)C)C(C)C [Melittin, reference compound]",2 µM,significant cytotoxicity,8 µM,4 µM,2 µM,eminent haemolysis from 1 μM,,,,,,,,,,"membrane permeabilisation of E. coli at MIC and MBC ([1]; 1 × 10^8 CFU/ml, PBS pH 7.4): higher absorbance at 420 nm; LDH release from HMEC-1 ([3]; 0.1 μM, relative to lysis buffer): approximately 10%; membrane permeability of S. aureus at MBC ([5]; peptide at its MBC, 37°C, 1 × 10^8 CFU/ml, relative to 70% isopropanol): 100%; membrane permeability of S. aureus at MIC ([5]; peptide at its MIC, 37°C, 1 × 10^8 CFU/ml, relative to 70% isopropanol): approximately 50%"
GLLDGLLGTLGL-NH2 [Caeridin-1],> 512 µM,weak cytotoxicity,> 512 µM,> 512 µM,> 512 µM,weak haemolytic activities,failed to induce membrane permeabilisation,> 512 µM,lower than 5%,> 512 µM,barely showed membrane-permeabilising activity,> 512 µM,> 512 µM,> 512 µM,> 512 µM,"maximum contraction effect on bladder smooth muscle preparations [8]: 0.3 g; EC50 ([8]; Kreb's solution, 10^−11 to 10^−6 M, read-out: EC50 inducing rat bladder smooth muscle contractions): 5.6 nM"
"N2H-GLLDSLLGGLGL-CONH2 [S5-Caeridin-1, novel Caeridin peptide from Litoria caerulea skin secretion, synthetic replicate, C-terminally amidated]",> 512 µM,weak cytotoxicity,> 512 µM,> 512 µM,> 512 µM,weak haemolytic activities,failed to induce membrane permeabilisation,> 512 µM,lower than 5%,> 512 µM,barely showed membrane-permeabilising activity,> 512 µM,> 512 µM,> 512 µM,> 512 µM,"maximum relaxant effect on ileum smooth muscle preparations [11]: 0.2 g; EC50 ([11]; Kreb's solution, 10^−11 to 10^−6 M, read-out: EC50 causing rat ileum smooth muscle relaxations): 9.5 nM"
"RPPGFSPFR [Bradykinin, reference compound] [listing 1 of 2 here]",> 512 µM,,> 512 µM,> 512 µM,> 512 µM,,failed to induce membrane permeabilisation,> 512 µM,,> 512 µM,barely showed membrane-permeabilising activity,> 512 µM,> 512 µM,> 512 µM,> 512 µM,
"RPPGFSPFR [Bradykinin, reference compound] [listing 2 of 2 here]",,weak cytotoxicity,,,,weak haemolytic activities,,,lower than 5%,,,,,,,
